The values that follow come from PubChem BioAssay (NCI).

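Cultured in 96-well plates, cells were exposed to test compound for 48 hours across five concentrations. GI50 marks 50% less growth. TGI: concentration producing complete growth inhibition.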

Among the test systems are SF-268 CNS; HL-60(TB) leukemia; HOP-62 NSCLC; KM12 colon; SF-295 CNS; NCI-H226 lung; HT29 colon; MDA-MB-231 breast; DMS 114 small cell lung; KM20L2 colon.
What all share (assay): NCI tumour cell line growth inhibition, 48 h

For `Nc1cc(Br)c(-c2nnc(CCC(=O)c3nc4ccccc4[nH]3)o2)c(Br)c1`, the GI50 in the test with SF-268 CNS was 5.14 µM; in the test on HL-60(TB) leukemia, 3.44 µM; with HOP-62 NSCLC, 23.7 µM; with KM12 colon, 3.71 µM; with SF-295 CNS it was 9.78 µM; in the test on NCI-H226 lung, 22.6 µM. Also, the GI50 was 19.2 µM with HT29 colon and 10.1 µM with MDA-MB-231 breast. The TGI is 81.5 µM in the test with SF-268 CNS; greater than 100 µM with HL-60(TB) leukemia; greater than 100 µM with HOP-62 NSCLC; 18 µM in the test on KM12 colon; 35.6 µM with SF-295 CNS; greater than 100 µM in the test with NCI-H226 lung. Further, the TGI in the test with HT29 colon was found to be 83.5 µM; with MDA-MB-231 breast it was 86.8 µM.

Consider `CC1(C)CN=C(NN=C(/C=C/c2ccc(C(F)(F)F)cc2)/C=C/c2ccc(C(F)(F)F)cc2)NC1`, for which the GI50 in the test with SF-268 CNS is 1.51 µM; with HL-60(TB) leukemia it was 2.03 µM; in the test with HOP-62 NSCLC it was 1.93 µM; with KM12 colon, 1.21 µM; in the test with SF-295 CNS it was 1.72 µM; in the test with NCI-H226 lung it was 1.51 µM. Also, the GI50 was 0.785 µM with HT29 colon and 0.477 µM in the test with MDA-MB-231 breast. Besides, the TGI stood at 3.12 µM in the test with SF-268 CNS; 4.35 µM in the test on HL-60(TB) leukemia; 3.56 µM in the test on HOP-62 NSCLC; 2.45 µM in the test on KM12 colon; 3.28 µM with SF-295 CNS; 3.27 µM in the test with NCI-H226 lung. The TGI is 2.14 µM with HT29 colon and 1.91 µM with MDA-MB-231 breast.

For the compound `Cc1cc2c(c(C(N)=O)c1C)-c1ccccc1C2=O`, the TGI in the test with SF-268 CNS, in the test with HL-60(TB) leukemia, in the test with DMS 114 small cell lung, with HOP-62 NSCLC, in the test with KM20L2 colon and with KM12 colon was greater than 100 µM throughout. Also, the TGI in the test with SF-295 CNS and in the test on HT29 colon was greater than 100 µM each time.

For `CC1=C(C#N)C(=O)CC(c2ccc(Cl)cc2)N(C)N1` (stereo not given), the TGI in the test on SF-268 CNS, with HL-60(TB) leukemia, in the test with DMS 114 small cell lung, with HOP-62 NSCLC, in the test on KM12 colon and in the test on SF-295 CNS was greater than 100 µM throughout. Further, the TGI in the test with NCI-H226 lung and with HT29 colon was greater than 100 µM throughout.

On to `CC(C)=C1CCC(CN(C)C)C1=O` (stereo not given), for which the TGI in the test with SF-268 CNS is 97.3 µM; in the test with HL-60(TB) leukemia, 15.6 µM; in the test on DMS 114 small cell lung, 38.4 µM; in the test with KM20L2 colon it was 27.7 µM; with KM12 colon, greater than 100 µM; in the test on SF-295 CNS it was greater than 100 µM. Moreover, the TGI in the test with HT29 colon was 41.1 µM.

Take `Nc1ccccc1O.O.O=C(O)C1[O][Sb][O]C1C(=O)O` (stereo not given): the GI50 is 17.5 µM with SF-268 CNS; 1.86 µM in the test with HL-60(TB) leukemia; 17.6 µM in the test on HOP-62 NSCLC; greater than 66.2 µM with KM12 colon; 39.9 µM in the test with SF-295 CNS; greater than 100 µM in the test on NCI-H226 lung. Moreover, the GI50 is 16.4 µM in the test on HT29 colon and 23.6 µM in the test with MDA-MB-231 breast. Further, the TGI in the test with SF-268 CNS was greater than 53.4 µM; in the test with HL-60(TB) leukemia, 10.6 µM; in the test with HOP-62 NSCLC, 35 µM; with KM12 colon, greater than 100 µM; in the test with SF-295 CNS, greater than 100 µM; in the test with NCI-H226 lung, greater than 100 µM. Also, the TGI with HT29 colon was greater than 56.2 µM; in the test with MDA-MB-231 breast it was greater than 71.7 µM.

Take `CC(C)[C@H](O)C(=O)N[C@@H](C)C(=O)N[C@@H]1C(=O)N(C)CCc2ccccc21`: the GI50 in the test on SF-268 CNS, in the test with HL-60(TB) leukemia, with HOP-62 NSCLC, with KM12 colon, in the test on SF-295 CNS and in the test on NCI-H226 lung was greater than 100 µM in each case. The GI50 with HT29 colon and with MDA-MB-231 breast was greater than 100 µM throughout. In addition, the TGI with SF-268 CNS, with HL-60(TB) leukemia, with HOP-62 NSCLC, with KM12 colon, with SF-295 CNS and in the test on NCI-H226 lung was greater than 100 µM each time. Also, the TGI with HT29 colon and in the test on MDA-MB-231 breast was greater than 100 µM in each case.

On to `CC(=O)N1CCN(c2ccc(OCC3COC(Cn4ccnc4)(c4ccc(Cl)cc4Cl)O3)cc2)CC1` (stereo not given), for which the TGI in the test with HL-60(TB) leukemia is greater than 100 µM; in the test with DMS 114 small cell lung, 43.7 µM; in the test on HOP-62 NSCLC it was greater than 100 µM; in the test on KM20L2 colon, greater than 100 µM; with KM12 colon it was greater than 100 µM; in the test on NCI-H226 lung it was 73.6 µM. This compound came in with a TGI in the test on HT29 colon of 43.9 µM.

Take `COc1ccc(-c2nc(-c3cc(OC)cc(OC)c3)[nH]c2-c2ccc(OC)cc2)cc1`: the GI50 was greater than 100 µM in the test on SF-268 CNS; 3.74 µM in the test with HL-60(TB) leukemia; greater than 100 µM with HOP-62 NSCLC; 6.2 µM in the test on KM12 colon; 5.51 µM in the test with SF-295 CNS; 5.47 µM with NCI-H226 lung. The GI50 with HT29 colon is 4.97 µM; with MDA-MB-231 breast it was 6.82 µM. The TGI in the test on SF-268 CNS, in the test with HL-60(TB) leukemia, in the test with HOP-62 NSCLC, in the test with KM12 colon, in the test with SF-295 CNS and with NCI-H226 lung was greater than 100 µM each time. The TGI in the test on HT29 colon and in the test with MDA-MB-231 breast was greater than 100 µM in each case.

As to `CCOCN1COCN(C)C1=O`, the TGI with SF-268 CNS, in the test with HOP-62 NSCLC, in the test on KM20L2 colon, in the test with KM12 colon, in the test on SF-295 CNS and in the test on NCI-H226 lung was greater than 100 µM throughout. The compound further registered a TGI with HT29 colon greater than 100 µM.

For `Nc1nc(-c2ccc(Cl)c([N+](=O)[O-])c2)cs1`, the TGI in the test on SF-268 CNS, in the test with HL-60(TB) leukemia, with DMS 114 small cell lung, in the test with HOP-62 NSCLC, with KM20L2 colon and with KM12 colon was greater than 100 µM each time. Also, the TGI in the test on SF-295 CNS and with HT29 colon was greater than 100 µM each time.
